Broadly, the melting point is the temperature, or range, at which the solid turns liquid.

We go through 87 compounds from a melting point compilation (Tetko et al.; mined from patent text by program, amines drawn as free bases though some values may be those of a salt).

For `COC(=O)c1ccc2[nH]cc(Cc3ccc(OCc4ccc5ccccc5n4)cc3)c2c1`, the melting point was in the range of 179 to 180 °C.
The compound `COc1ccc(-c2cccc3c2/C(=C/c2ccc[nH]2)C(=O)N3)cc1` showed a melting point of 222 to 223 °C.
The value for `CCc1cc2c(O)c(C#N)c(=O)oc2cc1C` was 224 to 226 °C.
`CCOc1nn(-c2ccccn2)cc1CCCOc1ccc(CCC(=O)O)cc1OC` displayed a melting point of 92 to 93 °C.
In the case of `CC(C)COc1c(-c2ccc(S(C)(=O)=O)cc2)cnn(-c2ccc(F)cc2)c1=O` it was 121 to 128 °C; in that of `CC(O)=C(C#N)C(=O)Nc1cccc(S(C)(=O)=O)c1`, 213 to 214 °C.
The value for `Cc1ccc(F)cc1-n1c(CF)nc2ccc(N)cc2c1=O` was 174 to 176 °C; that for `CN(C)C1(c2cccc(F)c2)CC=C(c2[nH]c3ccccc3c2CCc2ccncc2)CC1` (configuration not stated) was 194 to 198 °C; that for `Cc1cccc(NC(=O)NC2N=C(c3ccccc3F)c3ccccc3N(Cc3ncccc3C(=O)N3CCCC3)C2=O)c1` (racemic) was 153 to 155 °C.
The value for `COc1cc(NC(C)=O)c(Cl)cc1C(=O)N[C@H]1CCN(CCCOc2ccc(F)cc2)C[C@H]1OC` (relative stereo) was 176 °C; that for `COc1c(C)c(N2CCN(c3ccc(C)cc3)CC2)c(C)c2c1OC(C)C2` (configuration not stated) was 82 to 84 °C.
`CC(C)NCC(O)COc1cccc(-c2oc3ccccc3c2C(=O)c2ccc(Cl)cc2)c1` (configuration not stated): the melting point is 53 to 60 °C.
The value for `NC(=O)COc1ccc(CCNS(=O)(=O)c2ccc(Cl)cc2)cc1` was 158 to 159 °C; that for `CCCCc1c(-c2cnccn2)ssc1=S` was 72 °C; that for `NS(=O)(=O)c1ccccc1-n1cccn1` was 167 to 170 °C.
The value for `COc1cc(Nc2c(C#N)cnc3cc4cc(OCCN5CCC(O)CC5)c(OC)cc4cc23)c(Cl)cc1Cl` was 193 to 198 °C; that for `Cc1ncsc1CNc1ccc(-n2nc(C(F)(F)F)cc2C2CC2)cc1` was 59.2 to 61.2 °C; that for `CC(C)(CO)C(O)C(Oc1ccc(Cl)cc1)n1cncn1` (configuration not stated) was 110 to 112 °C.
In the case of `CCCCSc1cc(C(=O)OCC)cc(S(N)(=O)=O)c1Cc1ccccc1` it was 120 to 122 °C; in that of `CC(=O)c1cccc(-c2ncc(N=CN(C)C)cn2)c1`, 146 to 148 °C.
For `Cc1[nH]nc(C(C)C)c1Oc1cc(C#N)cc(C#N)c1`, the melting point was 142 to 144 °C.
The value for `CC(C)n1nc(-c2sc(NC(=O)N(C)C)nc2-c2ccccc2)ccc1=O` was 199 to 200 °C; that for `O=C(NCc1ccccc1)c1ccnc(NC(=O)c2cc(F)cc(F)c2)c1` was 185 to 187 °C.
In the case of `CCCCc1cc2cc(C(=O)NOCc3ccccc3)ccn2c1C(=O)c1ccc(OCCCN(CCCC)CCCC)cc1` it was 118 to 119 °C; in that of `CCOn1nnc2ccc(C(C)n3ccnc3)cc21` (configuration not stated), 81.1 °C.
The value for `O=c1ccc(-c2ccnnc2)c[nH]1` was > 250 °C; that for `CC(C)(C)CC(NC(=O)c1ccc(Cl)cc1)NC(=NC#N)Nc1cccnc1` (configuration not stated) was 181 to 183 °C; that for `CCOC(=O)c1cn(-c2nc(N)c(F)cc2F)c2c(F)c(F)c(F)c(F)c2c1=O` was 223 to 230 °C.
For `CC(C)N1CCCN=C1SC1=C(O)CC(c2ccccc2)OC1=O` (configuration not stated), the melting point fell in the range of 103 to 105 °C.
In the case of `CCOC(=O)c1cc(NCc2c(C)cccc2C)c2nc(C)n(C)c2c1` it was 190 °C; in that of `CC(=O)c1cn(C(c2ccccc2)(c2ccccc2)c2ccccc2)cn1`, 158 to 160 °C.
The value for `CC(=O)c1ccc(-c2cnc3c(c2)N(Cc2ccccc2)C(=O)CN3)cc1` was 200 °C.
In the case of `O=C1CCc2ccc(OCCCCN3CCCN(c4cccc(Cl)c4Cl)CC3)nc2N1` it was 110 to 111 °C; in that of `Fc1cc(CC2(Cc3ccncc3)c3ccccc3-c3sccc32)ccn1` (configuration not stated), 117 to 119 °C.
For the compound `O=C(NC(=O)c1c(F)cccc1F)Nc1cc(Br)c(Br)cc1C(F)(F)F`, the melting point was 203 °C.
In the case of `COc1ccc(-c2ccc3c(-c4ccccc4)c(OC)ccc3c2)cc1` it was 157 to 160 °C; in that of `CNC(=O)COc1cccc(CCNC(=O)/C=C/c2cccnc2)c1`, 140 to 141 °C; in that of `CN1C(=O)C(c2ccc(OC(F)F)cc2)(c2cccc(CCCCC#N)c2)N=C1N` (configuration not stated), 65 °C.
In the case of `CCc1cc(F)cc2c1OCC(C)(C)CC2(O)c1ccccn1` (configuration not stated) it was 100 °C; in that of `CC(C)COC(=O)c1ccc2nc(N)n(S(=O)(=O)N(C)C)c2c1`, 197 to 198 °C; in that of `Cc1cc(Nc2ccnc(Nc3ccc(S(=O)(=O)N(C)C4CCN(Cc5cn[nH]c5)CC4)cc3)n2)ccc1F`, 224 °C.
The compound `CCCCc1nc(=O)c2cc(-c3nnn(C(c4ccccc4)(c4ccccc4)c4ccccc4)n3)ccc2[nH]1` had a melting point of 182 °C.
In the case of `COC(=O)c1sc2c(c1N=C1CCCN1C)c1ccccc1c(=O)n2-c1ccccc1C` it was 209 to 211 °C.
In the case of `CS(=O)(=O)c1ccc(Cc2n[nH]c3c2c(=O)n(-c2ccccc2)c2ncccc32)cc1` it was 312 °C; in that of `COc1c(C)cc(C)cc1/C=C/C(=O)O`, 178 to 180 °C; in that of `Cc1cc(C(C)(C)C)c(O)c(S(=O)(=O)Nc2ccc(C#N)cc2Cl)c1`, 101 to 105 °C.
The value for `CCC(=O)Nc1c(C(=O)c2cccc(Cl)c2)[nH]c2cc(Cl)ccc12` was 129 to 130 °C.
`Cc1cc(NC(=O)OC(C)(C)C)c(N)cc1-c1ccc(F)cc1` had a melting point of 112 °C.
The value for `O=Cc1ccc(Sc2nc3cc(Cl)c(Cl)cc3[nH]2)o1` was 170 °C.
With `Nc1ccc(C(=O)N2CC3CC(CN(Cc4ccc(Cl)cc4)C3)C2)cc1`, the melting point was determined as 213 °C.
In the case of `O=c1oc2c(c(O)c1C(c1ccccc1)C1CC1)CCCCC2CC1CC1` (configuration not stated) it was 77 to 83 °C; in that of `N#Cc1ccc(-c2cncc(OC3SCC(O)C(O)C3O)c2)cc1C#N` (configuration not stated), 192 °C; in that of `CSC(=C[N+](=O)[O-])N(C)C`, 60 °C.
As for `CN(C)S(=O)(=O)c1cc2c(c(C(=O)O)c1)OCCO2`, the melting point lay in the range of 220 to 221 °C.
The value for `Nc1cc(C(c2cc(F)ccc2F)S(=O)(=O)c2ccc(Cl)cc2)c(Cl)cn1` (configuration not stated) was 147 to 150 °C.
In the case of `COc1ccc(-c2coc(C(=O)NNC(=O)c3ccc(O)c(C#N)c3)c2-c2ccccc2)cc1` it was 146 to 148 °C.
In the case of `COC(=O)Cc1ccc(OCCNC(=O)C2Cc3ccccc3N2S(=O)(=O)c2ccc(-c3cccc(C(F)(F)F)c3)cc2)c(OC)c1` (configuration not stated) it was 52 to 60 °C.
`Cc1nccn1-c1ccc(N)cc1C(F)(F)F`: the melting point fell in the range of 117 to 119 °C.
The value for `CC(C)Cn1cnc2c(N)nc3c(c21)CCNC3` was 220 to 223 °C.
In the case of `COC(=O)c1cc(=O)n(-c2c(Cl)cc(C(F)(F)F)cc2Cl)[nH]1` it was 245 to 246 °C.
Regarding `COc1ccc(Cn2c(C(C)C)c(C(=O)c3cccnc3)c3ccccc32)cc1`, the melting point was 190 °C.
The value for `c1ccc(CN2CCCCC2)c(CN2CCCCC2)c1` was 86 to 88 °C.
Turning to `C[C@H](NC(=O)OC(C)(C)C)C(=O)N1CCC[C@H]1C(=O)N1CCC[C@H]1C(=O)OCc1ccccc1`, the melting point is 143 to 145 °C.
The value for `OC[C@H](O)CSc1ccccc1` was 79 to 81 °C; that for `Cc1nnc(N2CCN(C=O)CC2)c2cc3ccccn3c12` was 325 °C; that for `N#CC(N)C=Cc1ccccc1` (configuration not stated) was 79 °C.
In the case of `COc1cc2c(c3c1OC(C)(C)C3)C(c1cccc(C(=O)NC3CCNC3=O)c1)=NC(C)(C)C2` (configuration not stated) it was 191 to 193 °C; in that of `O[C@H](COc1cccc2[nH]ccc12)CN1CC=C(c2c[nH]c3cccc(F)c23)CC1`, 90 to 95 °C; in that of `CNC(=S)NCCSCc1cnccn1`, 99.5 to 100 °C.
In the case of `NC(=O)c1cc2c(-c3cccc(NC(=O)c4cccc(C(F)(F)F)c4)c3)ncnc2s1` it was 275 to 278 °C; in that of `COC(=O)COc1ncccc1Oc1cc(NC(=O)CC(=O)C(F)(F)F)c(F)cc1Cl`, 159 °C; in that of `CC(=O)OCC(=O)[C@@]1(O)CCc2c(O)c3c(c(O)c2C1)C(=O)c1cccc(O)c1C3=O`, 215 to 217 °C.
The compound `O=C(NC(Cc1c[nH]c2ccccc12)C(=O)O)C(S)Cc1ccccc1` (configuration not stated) yielded a melting point of 117 to 119 °C.
The value for `Cc1ccc(-c2c(N)ncnc2OCCOc2ncc(Br)cn2)cc1` was 178 to 180 °C.
The value for `O=[N+]([O-])c1ccccc1SC1SCC(O)C(O)C1O` (configuration not stated) was 185 °C; that for `c1ccc(N(c2ccccc2)c2ccc(N(c3ccccc3)c3ccccc3)cc2)cc1` was 200 to 202 °C; that for `CCCCCCOc1ccc(Nc2cc(Nc3ccc4c(c3)OCCO4)ncc2F)cc1` was 124 to 125 °C.
In turn, `COC(=O)CCC(C)C(=O)N[C@@H](C)C(=O)OCc1ccccc1` (some centres not stated) yielded a melting point of 97 to 99 °C.
The value for `COC(=O)c1ccc2c(c1)C=CC(=O)CO2` was 89 to 93 °C; that for `CN(C(=O)OC(C)(C)C)c1cc(OCc2ccccc2)ccc1N` was 86 to 89 °C.
Regarding `Fc1cc(F)c(F)c(N=C2NCCN2)c1F`, the melting point lay in the range of 147 to 148 °C.
In the case of `OCCOc1ccc2ccn(C3CCN(CCc4ccc(F)cc4)CC3)c2c1` it was 118 to 119 °C; in that of `C=CCOc1cccc(C(=O)CCC(=O)OC)c1`, 30 to 32.5 °C.
The value for `Nc1ccc2c(c1)C(=O)CC21CCCC1` was 125 °C.
In the case of `COc1cc(OC)c2c(=O)[nH]c(-c3cc(C)c(CCCN4CCCC4)c(C)c3)nc2c1` it was 194 to 196 °C; in that of `CCCCCC1CCC(c2ccc(-c3cc(F)c(N)cc3F)cc2)CC1` (configuration not stated), 68.3 to 70.4 °C.
With `COc1cc2c(Nc3cccc(C)c3)ncnc2cc1OC(C)C`, the melting point was in the range of 218 to 221 °C.
